Tested on: patients with advanced solid tumors
Assay: Treatment-related adverse events graded by NCI-CTC v3.0
Format: in vivo, human
Protocol: Medical records and laboratory tests were obtained during screening. Physical examination, routine laboratory evaluations, and performance status were assessed at baseline and at specified time points throughout the trial. AEs and concomitant medications were recorded at the end of each cycle. The safety evaluation period extended through 30 days from the last dose of study drug or through recovery to grade 1 or better from all acute toxicities associated with drug administration. Toxicity was evaluated and graded according to the NCI-CTC for Adverse Events, version 3.0.

## N#CC1(c2ccc(NC(=O)c3cccnc3NCc3ccncc3)cc2)CCCC1 [apatinib]
250 mg cohort
  Anemia grade 1-2, %: 25.0%
  Anemia grade 1-2, No.: 1
  Hyperbilirubinemia grade 3-4, %: 25%
  Hyperbilirubinemia grade 3-4, No.: 1
  Hypertension grade 1-2, %: 50%
  Hypertension grade 1-2, No.: 2
  Infection grade 1-2, %: 25.0%
  Infection grade 1-2, No.: 1
  Proteinuria grade 3-4, %: 25.0%
  Proteinuria grade 3-4, No.: 1
  Thrombocytopenia grade 1-2, %: 25.0%
  Thrombocytopenia grade 1-2, No.: 1
  Transaminase Increased grade 1-2, %: 50.0%
  Transaminase Increased grade 1-2, No.: 2
500 mg cohort
  Anemia grade 1-2, %: 9%
  Anemia grade 1-2, No.: 1
  Anorexia grade 1-2, %: 18.2%
  Anorexia grade 1-2, No.: 2
  Diarrhea grade 1-2, %: 9%
  Diarrhea grade 1-2, No.: 1
  Fatigue grade 1-2, %: 9%
  Fatigue grade 1-2, No.: 1
  Hand-Food Syndrome grade 1-2, %: 36.4%
  Hand-Food Syndrome grade 1-2, No.: 4
  Hand-Food Syndrome grade 3-4, %: 9%
  Hand-Food Syndrome grade 3-4, No.: 1
  Hemorrhage grade 1-2, %: 36.4%
  Hemorrhage grade 1-2, No.: 4
  Hemorrhage grade 3-4, %: 9%
  Hemorrhage grade 3-4, No.: 1
  Hoarseness grade 1-2, %: 9%
  Hoarseness grade 1-2, No.: 1
  Hypertension grade 1-2, %: 63.6%
  Hypertension grade 1-2, No.: 7
  Infection grade 1-2, %: 9%
  Infection grade 1-2, No.: 1
  Mucosal ulcers grade 1-2, %: 18.2%
  Mucosal ulcers grade 1-2, No.: 2
  Neutropenia grade 1-2, %: 18.2%
  Neutropenia grade 1-2, No.: 2
  Neutropenia grade 3-4, %: 18.2%
  Neutropenia grade 3-4, No.: 2
  Pain grade 1-2, %: 36.4%
  Pain grade 1-2, No.: 4
  Pain grade 3-4, %: 18.2%
  Pain grade 3-4, No.: 2
  Proteinuria grade 1-2, %: 36.4%
  Proteinuria grade 1-2, No.: 4
  Proteinuria grade 3-4, %: 9%
  Proteinuria grade 3-4, No.: 1
  Rash grade 1-2, %: 9%
  Rash grade 1-2, No.: 1
  Thrombocytopenia grade 1-2, %: 18.2%
  Thrombocytopenia grade 1-2, No.: 2
  Thrombocytopenia grade 3-4, %: 0%
  Thrombocytopenia grade 3-4, No.: 0
  Transaminase Increased grade 1-2, %: 9%
  Transaminase Increased grade 1-2, No.: 1
  Transaminase Increased grade 3-4, %: 9%
  Transaminase Increased grade 3-4, No.: 1
  Vomiting grade 1-2, %: 0%
  Vomiting grade 1-2, No.: 0
750 mg cohort
  Albinism grade 1-2, %: 6.7%
  Albinism grade 1-2, No.: 1
  Anemia grade 1-2, %: 20%
  Anemia grade 1-2, No.: 3
  Anorexia grade 1-2, %: 20%
  Anorexia grade 1-2, No.: 3
  Diarrhea grade 1-2, %: 20%
  Diarrhea grade 1-2, No.: 3
  Fatigue grade 1-2, %: 26.7%
  Fatigue grade 1-2, No.: 4
  Fatigue grade 3-4, %: 6.7%
  Fatigue grade 3-4, No.: 1
  Hand-Food Syndrome grade 1-2, %: 46.7%
  Hand-Food Syndrome grade 1-2, No.: 7
  Hand-Food Syndrome grade 3-4, %: 13.3%
  Hand-Food Syndrome grade 3-4, No.: 2
  Hemorrhage grade 1-2, %: 33.3%
  Hemorrhage grade 1-2, No.: 5
  Hoarseness grade 1-2, %: 13.3%
  Hoarseness grade 1-2, No.: 2
  Hypertension grade 1-2, %: 60%
  Hypertension grade 1-2, No.: 9
  Hypertension grade 3-4, %: 13.3%
  Hypertension grade 3-4, No.: 2
  Infection grade 1-2, %: 26.7%
  Infection grade 1-2, No.: 4
  Mucosal ulcers grade 1-2, %: 13.3%
  Mucosal ulcers grade 1-2, No.: 2
  Mucosal ulcers grade 3-4, %: 13.3%
  Mucosal ulcers grade 3-4, No.: 2
  Neutropenia grade 1-2, %: 46.7%
  Neutropenia grade 1-2, No.: 7
  Pain grade 1-2, %: 26.7%
  Pain grade 1-2, No.: 4
  Pain grade 3-4, %: 13.3%
  Pain grade 3-4, No.: 2
  Proteinuria grade 1-2, %: 46.67%
  Proteinuria grade 1-2, No.: 7
  Proteinuria grade 3-4, %: 20%
  Proteinuria grade 3-4, No.: 3
  Rash grade 1-2, %: 6.7%
  Rash grade 1-2, No.: 1
  Thrombocytopenia grade 1-2, %: 40%
  Thrombocytopenia grade 1-2, No.: 6
  Transaminase Increased grade 1-2, %: 40%
  Transaminase Increased grade 1-2, No.: 6
  Vomiting grade 1-2, %: 26.7%
  Vomiting grade 1-2, No.: 4
850 mg cohort
  Anemia grade 1-2, %: 15.4%
  Anemia grade 1-2, No.: 2
  Anemia grade 3-4, %: 7.7%
  Anemia grade 3-4, No.: 1
  Anorexia grade 1-2, %: 7.7%
  Anorexia grade 1-2, No.: 1
  Diarrhea grade 1-2, %: 15.4%
  Diarrhea grade 1-2, No.: 2
  Dyspnea grade 1-2, %: 7.7%
  Dyspnea grade 1-2, No.: 1
  Fatigue grade 1-2, %: 30.8%
  Fatigue grade 1-2, No.: 4
  Hand-Food Syndrome grade 1-2, %: 30.8%
  Hand-Food Syndrome grade 1-2, No.: 4
  Hand-Food Syndrome grade 3-4, %: 15.4%
  Hand-Food Syndrome grade 3-4, No.: 2
  Hemorrhage grade 1-2, %: 7.7%
  Hemorrhage grade 1-2, No.: 1
  Hoarseness grade 1-2, %: 7.7%
  Hoarseness grade 1-2, No.: 1
  Hyperbilirubinemia grade 1-2, %: 23.1%
  Hyperbilirubinemia grade 1-2, No.: 3
  Hypertension grade 1-2, %: 69.2%
  Hypertension grade 1-2, No.: 9
  Infection grade 1-2, %: 23.1%
  Infection grade 1-2, No.: 3
  Mucosal ulcers grade 1-2, %: 15.4%
  Mucosal ulcers grade 1-2, No.: 2
  Neutropenia grade 1-2, %: 30.8%
  Neutropenia grade 1-2, No.: 4
  Neutropenia grade 3-4, %: 15.4%
  Neutropenia grade 3-4, No.: 2
  Pain grade 1-2, %: 23.1%
  Pain grade 1-2, No.: 3
  Proteinuria grade 1-2, %: 38.5%
  Proteinuria grade 1-2, No.: 5
  Proteinuria grade 3-4, %: 7.7%
  Proteinuria grade 3-4, No.: 1
  Rash grade 1-2, %: 7.7%
  Rash grade 1-2, No.: 1
  Thrombocytopenia grade 1-2, %: 15.4%
  Thrombocytopenia grade 1-2, No.: 2
  Thrombocytopenia grade 3-4, %: 7.7%
  Thrombocytopenia grade 3-4, No.: 1
  Transaminase Increased grade 1-2, %: 23.1%
  Transaminase Increased grade 1-2, No.: 3
  Transaminase Increased grade 3-4, %: 15.4%
  Transaminase Increased grade 3-4, No.: 2
  Vomiting grade 3-4, %: 7.7%
  Vomiting grade 3-4, No.: 1
1000 mg cohort
  Anemia grade 3-4, %: 33.3%
  Anemia grade 3-4, No.: 1
  Anorexia grade 1-2, %: 33.3%
  Anorexia grade 1-2, No.: 1
  Fatigue grade 1-2, %: 33.3%
  Fatigue grade 1-2, No.: 1
  Fatigue grade 3-4, %: 33.3%
  Fatigue grade 3-4, No.: 1
  Hand-Food Syndrome grade 3-4, %: 33.3%
  Hand-Food Syndrome grade 3-4, No.: 1
  Hypertension grade 1-2, %: 66.7%
  Hypertension grade 1-2, No.: 2
  Hypertension grade 3-4, %: 33.3%
  Hypertension grade 3-4, No.: 1
  Infection grade 1-2, %: 33.3%
  Infection grade 1-2, No.: 1
  Mucosal ulcers grade 1-2, %: 66.7%
  Mucosal ulcers grade 1-2, No.: 2
  Neutropenia grade 1-2, %: 100%
  Neutropenia grade 1-2, No.: 3
  Pain grade 1-2, %: 33.3%
  Pain grade 1-2, No.: 1
  Thrombocytopenia grade 1-2, %: 33.3%
  Thrombocytopenia grade 1-2, No.: 1
  Transaminase Increased grade 1-2, %: 33.3%
  Transaminase Increased grade 1-2, No.: 1
  Transaminase Increased grade 3-4, %: 33.3%
  Transaminase Increased grade 3-4, No.: 1
Total, all cohorts
  Albinism grade 1-2, %: 2.2%
  Albinism grade 1-2, No.: 1
  Anemia grade 1-2, %: 15.2%
  Anemia grade 1-2, No.: 7
  Anemia grade 3-4, %: 4.3%
  Anemia grade 3-4, No.: 2
  Anorexia grade 1-2, %: 15.2%
  Anorexia grade 1-2, No.: 7
  Diarrhea grade 1-2, %: 13%
  Diarrhea grade 1-2, No.: 6
  Dyspnea grade 1-2, %: 2.2%
  Dyspnea grade 1-2, No.: 1
  Fatigue grade 1-2, %: 21.7%
  Fatigue grade 1-2, No.: 10
  Fatigue grade 3-4, %: 4.3%
  Fatigue grade 3-4, No.: 2
  Hand-Food Syndrome grade 1-2, %: 32.6%
  Hand-Food Syndrome grade 1-2, No.: 15
  Hand-Food Syndrome grade 3-4, %: 13%
  Hand-Food Syndrome grade 3-4, No.: 6
  Hemorrhage grade 1-2, %: 21.7%
  Hemorrhage grade 1-2, No.: 10
  Hemorrhage grade 3-4, %: 2.2%
  Hemorrhage grade 3-4, No.: 1
  Hoarseness grade 1-2, %: 8.7%
  Hoarseness grade 1-2, No.: 4
  Hyperbilirubinemia grade 1-2, %: 6.5%
  Hyperbilirubinemia grade 1-2, No.: 3
  Hyperbilirubinemia grade 3-4, %: 2.2%
  Hyperbilirubinemia grade 3-4, No.: 1
  Hypertension grade 1-2, %: 63%
  Hypertension grade 1-2, No.: 29
  Hypertension grade 3-4, %: 6.5%
  Hypertension grade 3-4, No.: 3
  Infection grade 1-2, %: 21.7%
  Infection grade 1-2, No.: 10
  Mucosal ulcers grade 1-2, %: 17.4%
  Mucosal ulcers grade 1-2, No.: 8
  Mucosal ulcers grade 3-4, %: 4.3%
  Mucosal ulcers grade 3-4, No.: 2
  Neutropenia grade 1-2, %: 34.8%
  Neutropenia grade 1-2, No.: 16
  Neutropenia grade 3-4, %: 8.7%
  Neutropenia grade 3-4, No.: 4
  Pain grade 1-2, %: 26.1%
  Pain grade 1-2, No.: 12
  Pain grade 3-4, %: 8.7%
  Pain grade 3-4, No.: 4
  Proteinuria grade 1-2, %: 34.8%
  Proteinuria grade 1-2, No.: 16
  Proteinuria grade 3-4, %: 13%
  Proteinuria grade 3-4, No.: 6
  Rash grade 1-2, %: 6.5%
  Rash grade 1-2, No.: 3
  Thrombocytopenia grade 1-2, %: 26.1%
  Thrombocytopenia grade 1-2, No.: 12
  Thrombocytopenia grade 3-4, %: 2.2%
  Thrombocytopenia grade 3-4, No.: 1
  Transaminase Increased grade 1-2, %: 28.3%
  Transaminase Increased grade 1-2, No.: 13
  Transaminase Increased grade 3-4, %: 8.7%
  Transaminase Increased grade 3-4, No.: 4
  Vomiting grade 1-2, %: 8.7%
  Vomiting grade 1-2, No.: 4
  Vomiting grade 3-4, %: 2.2%
  Vomiting grade 3-4, No.: 1
All patients, N = 46
  hypertension, drug-related AE, all grades: 69.5%
  proteinuria, drug-related AE, all grades: 47.8%
All patients, most at tumor sites
  bleeding, patients: 23.9%
In vivo
  patients who developed HFS that progressed to grade 3: About 10%

Source: publication PMC2984425, “Safety and pharmacokinetics of novel selective vascular endothelial growth factor receptor-2 inhibitor YN968D1 in patients with advanced malignancies” (BMC Cancer, 2010)
